Results reported in PubChem BioAssay AID1645864 (Buhrlage Lab, Dana-Farber Cancer Institute and Novartis …, 2021).
Activity calls are given as the source filed them.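 Rule for the calls: active = maximal inhibition of USP17 at or above 30% in the confirmation dose-response, a value not among the printed readouts; inactive = the rest.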

These molecules were tested against Ubiquitin carboxyl-terminal hydrolase 17-like protein 5 (Homo sapiens) (UniProt A8MUK1) (assay: ubiquitin-specific protease 17 inhibitors, concentration series, biochemical, verification of primary actives (AID 1645864)). Settings: purified USP17, ubiquitin-rhodamine cleavage fluorescence, 3 h.
Chain of Ubiquitin carboxyl-terminal hydrolase 17-like protein 5 (Homo sapiens) (A8MUK1 whole entry, looked up): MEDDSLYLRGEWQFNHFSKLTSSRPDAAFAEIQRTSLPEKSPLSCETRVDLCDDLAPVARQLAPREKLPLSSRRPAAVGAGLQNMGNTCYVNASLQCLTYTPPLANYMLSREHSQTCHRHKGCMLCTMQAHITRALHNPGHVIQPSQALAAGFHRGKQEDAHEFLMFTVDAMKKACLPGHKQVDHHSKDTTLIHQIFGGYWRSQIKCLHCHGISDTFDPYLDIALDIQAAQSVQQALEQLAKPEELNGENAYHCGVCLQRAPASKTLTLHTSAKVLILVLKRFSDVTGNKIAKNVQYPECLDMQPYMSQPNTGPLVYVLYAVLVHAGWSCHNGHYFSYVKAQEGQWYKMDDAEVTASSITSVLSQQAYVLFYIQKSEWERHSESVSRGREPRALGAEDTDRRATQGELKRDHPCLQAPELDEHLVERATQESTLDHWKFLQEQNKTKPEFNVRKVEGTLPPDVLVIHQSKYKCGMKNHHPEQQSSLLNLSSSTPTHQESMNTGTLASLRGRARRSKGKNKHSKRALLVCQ

SMILES | IC50
O=C(Nc1cccc(Br)c1)c1cc(-c2cccnc2)n[nH]1 | 4.2 µM
Cc1c(C(=O)c2ccccc2)c2ccccn2c1CCc1ccccn1 | > 50 µM (inactive)
COc1ccc(C(=O)Nc2cc(-c3ccccn3)no2)cn1 | > 50 µM (inactive)
Cc1nn(Cc2ccccc2)c2sc(C(=O)Nc3nc4ccccc4[nH]3)cc12 | 23.5 µM
Cc1nn(-c2cccc(F)c2)c2c1C(C(=O)c1ccc(Cl)s1)CC(=O)N2 (stereo unspecified) | 39.8 µM
Cn1c(CN2CCCCCC2)nc2cc(NC(=O)c3ccccc3)ccc21 | > 50 µM (inactive)
CCn1c(COc2cccc(C(F)(F)F)c2)nnc1SCc1ccc(Cl)cc1 | 43.4 µM
Clc1ccccc1CSc1nnc(C2CCCCC2)n1Cc1ccccc1 | 40.8 µM
CCOc1ccc(NC(=O)Cn2c(=O)n(CCC(=O)NCc3ccccc3OC)c(=O)c3ccccc32)cc1 | 4.35 µM
O=C(Nc1ccc2c(c1)OCCO2)C1CCC(Cn2cnc3ccccc3c2=O)CC1 (stereo unspecified) | > 50 µM (inactive)
Cc1cc(C)c(O)c(-c2cc(C(=O)Nc3ccccc3Cl)[nH]n2)c1 | 1.75 µM
